{"source": "patent US20050014675A1", "about": "“Cell migration inhibitor” (priority 2001, published 2005)", "assay_type_in_all_cases": "cell-based", "key": {"[1]": {"system": "human vascular smooth muscle cells", "test": "PDGF-induced migration of human vascular smooth muscle cells (Boyden's chamber)", "details": "for action on the PDGF-induced migration of vascular smooth muscle cells (summary of Test 1): Test 1, summary statement; for action on PDGF-induced migration / suppressive action on PDGF-induced migration: human vascular smooth muscle cells, FIG. 4; for suppressive action on PDGF-induced migration: compound at 10 nM", "protocol": "(§1) Human vascular smooth muscle cells were cultured in SmBM with the additive factors in a culture incubator (37° C., 5% CO2/95% air) and cells at the 5th-9th passage were used in the test. Rabbit vascular smooth muscle cells were obtained by an explant technique from the media of rabbit thoracic aorta and cultured in DMEM with 10% fetal bovine serum; cells at the 5th-7th passage were used in the test.\n(§2) Cells that proliferated to confluence were detached with trypsin, washed twice with an additive factor free medium, dispersed in SmBM containing 0.1% fetal bovine serum and prepared to a cell density of 5×10^5 cells/mL. Migration of cells was assayed according to Koyama et al. method (J. Biol. Chem. (1993) 268:13301-13308) using a 48-well Boyden's chamber (Neuro probe). To be more specific, 28 μL of SmBM containing 10 ng/mL of PDGF and 0.1% FBS was placed in the lower chamber and 50 μL of a cell dispersion preliminarily incubated with each assay compound for 10 minutes was placed in the upper chamber. The upper chamber and the lower chamber were separated by a polycarbonate filter (having pores 8 μm in diameter) precoated with type I collagen (Nitta Gelatin Inc.) Since the placement of the cell dispersion, the Boyden's chamber was incubated in a culture incubator (37° C., 5% CO2/95% air) for 4 hours. The cells on the upper side of the filter were scraped off and the cells that had migrated to the lower side of the filter were fixed in methanol and stained with Diff-Quick staining solution (International Reagents Corporation). The filter had been air-dried on a glass slide and sealed with Enteran New. The cells were counted under a high-power microscope (×200) in 4 fields per well and the number of cells that had migrated was averaged to determine the migration activity.\nThe result of each treated group was represented by the mean±standard deviation for 3 wells. Statistical significance was estimated by one-way ANOVA, if p value was less than 5%, followed by Dunnett method to compare between vehicle-treated group and the others in the presence of a migration inducer. Values of p less than 5% were considered to be significant."}, "[2]": {"system": "rabbit vascular smooth muscle cells", "test": "PDGF-induced migration of rabbit vascular smooth muscle cells (Boyden's chamber)", "details": "treatment with 10 nM, FIG. 3", "protocol": "as §1\nCells that proliferated to confluence were detached with trypsin, washed twice with an additive factor free medium, dispersed in SmBM containing 0.1% fetal bovine serum and prepared to a cell density of 5×10^5 cells/mL. Migration of cells was assayed according to Koyama et al. method (J. Biol. Chem. (1993) 268:13301-13308) using a 48-well Boyden's chamber (Neuro probe). To be more specific, 28 μL of SmBM containing 10 ng/mL of PDGF and 0.1% FBS was placed in the lower chamber and 50 μL of a cell dispersion preliminarily incubated with each assay compound for 10 minutes was placed in the upper chamber. […] The cells were counted under a high-power microscope (×200) in 4 fields per well and the number of cells that had migrated was averaged to determine the migration activity. […]"}, "[3]": {"system": "Human mesangial cells", "test": "PDGF-induced migration of human mesangial cells (Boyden's chamber)", "protocol": "as §2, with “activity. […]” for “activity.”"}}, "note": "Where a name gives a salt, the structure may show the parent alone. Non-standard residues stand in square brackets, D forms with d. Residues, ends and D or L forms follow the SMILES beside them. No end group written: not given here. dTrp(2-Me) = Cc1[nH]c2ccccc2c1C[C@@H](N)C(=O)O; d2Nal = N[C@H](Cc1ccc2ccccc2c1)C(=O)O", "data": [{"compound": "GHRH: human-type growth-hormone releasing hormone (Peptide Institute, Inc.) (YADAIFTNSYRKVLGQLSARKLLQDIMSRQQGESNQERGARARL; ends and bridges not checked; UniProt P01286 32-75, looked up)", "values": [{"measurement": "action on the PDGF-induced migration of vascular smooth muscle cells (summary of Test 1)", "setting": "[1]", "value": "no action"}, {"measurement": "action on PDGF-induced migration", "setting": "[1]; at 10 nM", "value": "no action"}]}, {"compound": "ghrelin", "values": [{"measurement": "action on the PDGF-induced migration of vascular smooth muscle cells (summary of Test 1)", "setting": "[1]", "value": "potent inhibitory action"}, {"measurement": "suppressive action on PDGF-induced migration", "setting": "[2]", "value": "significant suppressive action"}, {"measurement": "suppression of PDGF-induced migration", "setting": "[3]; FIG. 9", "value": "This action was also verified"}]}, {"compound": "C[C@H](NC(=O)[C@@H](Cc1ccc2ccccc2c1)NC(=O)[C@@H](C)N)C(=O)N[C@@H](Cc1c[nH]c2ccccc12)C(=O)N[C@H](Cc1ccccc1)C(=O)N[C@@H](CCCCN)C(N)=O", "note": "[KP-102, Pralmorelin dihydrochloride] (H-[dA][d2Nal]AW[dF]K-NH2)", "values": [{"measurement": "action on the PDGF-induced migration of vascular smooth muscle cells (summary of Test 1)", "setting": "[1]", "value": "potent inhibitory action"}, {"measurement": "suppressive action on PDGF-induced migration", "setting": "[2]", "value": "significant suppressive action"}, {"measurement": "concentration with significant suppression of PDGF-induced migration", "setting": "[3]; FIG. 8", "value": "≥ 0.1", "unit": "nM"}]}, {"compound": "Cc1[nH]c2ccccc2c1C[C@@H](NC(=O)[C@@H](N)Cc1cnc[nH]1)C(=O)N[C@@H](C)C(=O)N[C@@H](Cc1c[nH]c2ccccc12)C(=O)N[C@H](Cc1ccccc1)C(=O)N[C@@H](CCCCN)C(N)=O", "note": "[hexarelin] (H-H[dTrp(2-Me)]AW[dF]K-NH2)", "values": [{"measurement": "action on the PDGF-induced migration of vascular smooth muscle cells (summary of Test 1)", "setting": "[1]", "value": "potent inhibitory action"}, {"measurement": "suppressive action on PDGF-induced migration", "setting": "[1]", "value": "significant suppressive action"}]}, {"compound": "CN1N=C2CCN(C(=O)[C@@H](COCc3ccccc3)NC(=O)C(C)(C)N)C[C@@]2(Cc2ccccc2)C1=O", "note": "[CP-424,391, capromorelin]", "values": [{"measurement": "action on the PDGF-induced migration of vascular smooth muscle cells (summary of Test 1)", "setting": "[1]", "value": "potent inhibitory action"}, {"measurement": "suppressive action on PDGF-induced migration", "setting": "[1]", "value": "significant suppressive action"}]}, {"compound": "CNC(=O)[C@@H](Cc1ccccc1)N(C)C(=O)[C@@H](Cc1ccc2ccccc2c1)N(C)C(=O)/C=C/CC(C)(C)N", "note": "[NN-703, tabimorelin]", "values": [{"measurement": "action on the PDGF-induced migration of vascular smooth muscle cells (summary of Test 1)", "setting": "[1]", "value": "potent inhibitory action"}, {"measurement": "suppressive action on PDGF-induced migration", "setting": "[1]", "value": "significant suppressive action"}]}, {"compound": "CC(C)(N)C(=O)N[C@H](COCc1ccccc1)C(=O)N1CCC2(CC1)CN(S(C)(=O)=O)c1ccccc12", "note": "[MK-0677, ibutamorelin methanesulfonate]", "values": [{"measurement": "action on the PDGF-induced migration of vascular smooth muscle cells (summary of Test 1)", "setting": "[1]", "value": "potent inhibitory action"}, {"measurement": "suppressive action on PDGF-induced migration", "setting": "[1]", "value": "significant suppressive action"}]}, {"compound": "GHRP-6", "values": [{"measurement": "action on the PDGF-induced migration of vascular smooth muscle cells (summary of Test 1)", "setting": "[1]", "value": "potent inhibitory action"}, {"measurement": "suppressive action on PDGF-induced migration", "setting": "[1]", "value": "significant suppressive action"}]}, {"compound": "GH: recombinant human growth hormone (Wako Pure Chemical Industries, Ltd.)", "values": [{"measurement": "action on the PDGF-induced migration of vascular smooth muscle cells (summary of Test 1)", "setting": "[1]", "value": "no action"}, {"measurement": "action on PDGF-induced migration", "setting": "[1]; at 0.1 μg/mL", "value": "no action"}]}]}
